Source: ChEMBL document CHEMBL1201862, “PubChem BioAssay data set” (2004)
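The compound was tested at five concentrations on cells cultured in 96-well plates, with a 48-hour exposure period. GI50: concentration for 50% inhibition of growth.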 Active and inactive are the calls of the source. Cut-off read from the data, not from the text of the source: active = GI50 up to about 1.1 µM and inactive = higher.

Experiments:
Assay in all cases: growth of human tumour cells (NCI), 48 h
786-0 = tested on: 786-0
DLD-1 = tested on: DLD-1
HCC 2998 = tested on: HCC 2998
HCT-116 = tested on: HCT-116
HCT-15 = tested on: HCT-15
LOX IMVI = tested on: LOX IMVI
NCI-H226 = tested on: NCI-H226
OVCAR-3 = tested on: OVCAR-3
RXF 393 = tested on: RXF 393
SF-268 = tested on: SF-268
SF-539 = tested on: SF-539
SN12C = tested on: SN12C
SNB-75 = tested on: SNB-75
UACC-62 = tested on: UACC-62
UO-31 = tested on: UO-31
BT-549 = tested on: BT-549
DU-145 = tested on: DU-145
HOP-92 = tested on: HOP-92
MDA-N = tested on: MDA-N
SK-MEL-28 = tested on: SK-MEL-28

Compound	GI50 (786-0)	GI50 (DLD-1)	GI50 (HCC 2998)	GI50 (HCT-116)	GI50 (HCT-15) [µM]	GI50 (LOX IMVI)	GI50 (NCI-H226)	GI50 (OVCAR-3)	GI50 (RXF 393)	GI50 (SF-268)	GI50 (SF-539)	GI50 (SN12C)	GI50 (SNB-75)	GI50 (UACC-62)	GI50 (UO-31)	GI50 (BT-549)	GI50 (DU-145)	GI50 (HOP-92)	GI50 (MDA-N)	GI50 (SK-MEL-28)
c1ccc(OC2=NC3=S(S2)SC(Oc2ccccc2)=N3)cc1	15.5 µM (inactive)	16.5 µM (inactive)	19.5 µM (inactive)	17.5 µM (inactive)	18.9	19.6 µM (inactive)	24.3 µM (inactive)	14.5 µM (inactive)	6.01 µM (inactive)	21.7 µM (inactive)	22.3 µM (inactive)	20.6 µM (inactive)	24.3 µM (inactive)	18.9 µM (inactive)	18.1 µM (inactive)					
O=C1C(N2CCN(CCOCCO)CC2)=C(Cl)C(=O)c2ncccc21	21.4 µM (inactive)		> 10 µM (inactive)	5.71 µM (inactive)	18.1	12.7 µM (inactive)	> 10 µM (inactive)	18.5 µM (inactive)	20 µM (inactive)	20.6 µM (inactive)	21.1 µM (inactive)	19.5 µM (inactive)	38.3 µM (inactive)	21.5 µM (inactive)	17.7 µM (inactive)	4.89 µM (inactive)	52.7 µM (inactive)	2.62 µM (inactive)	1.97 µM (inactive)	22.2 µM (inactive)
CC(=O)Nc1ccc(C(=O)NN2C(=O)C(Cl)C2c2ccccc2)cc1 (configuration not stated)	> 100 µM (inactive)	> 100 µM (inactive)		> 100 µM (inactive)		> 100 µM (inactive)	> 100 µM (inactive)	> 100 µM (inactive)	> 100 µM (inactive)	> 100 µM (inactive)	> 100 µM (inactive)	> 100 µM (inactive)	> 100 µM (inactive)	> 100 µM (inactive)	> 100 µM (inactive)			> 100 µM (inactive)		> 100 µM (inactive)
CN(C)CCNC(=O)c1cccc2c(Nc3ccc(S(N)(=O)=O)cc3)c3ccccc3nc12	1.09 µM (active)	1.72 µM (inactive)	1.71 µM (inactive)	0.356 µM (active)	1.83	0.531 µM (active)	1.05 µM (active)	1.69 µM (inactive)		0.746 µM (active)	0.536 µM (active)	0.656 µM (active)	1.26 µM (inactive)	1.42 µM (inactive)	1.87 µM (inactive)			1.32 µM (inactive)		1.57 µM (inactive)
N#Cc1c(Cl)c2ccccc2n2c1nc1ccccc12	19.7 µM (inactive)		19.6 µM (inactive)	18.3 µM (inactive)	15.2	10.8 µM (inactive)	21.6 µM (inactive)	36.5 µM (inactive)	22.6 µM (inactive)	27.2 µM (inactive)	19.4 µM (inactive)	25.4 µM (inactive)	60.4 µM (inactive)	43.5 µM (inactive)	16.1 µM (inactive)	71 µM (inactive)	27.7 µM (inactive)	19.7 µM (inactive)	35 µM (inactive)	79.3 µM (inactive)
CSC(C1c2ccccc2N(c2ccc(C)cc2)c2[nH]c(=O)n(C)c(=O)c21)S(=O)(=O)c1ccc(C)cc1 (configuration not stated)	> 100 µM (inactive)	> 100 µM (inactive)	> 100 µM (inactive)	> 100 µM (inactive)		> 100 µM (inactive)	> 100 µM (inactive)	> 100 µM (inactive)		> 100 µM (inactive)	> 100 µM (inactive)	> 100 µM (inactive)	> 100 µM (inactive)	> 100 µM (inactive)	> 100 µM (inactive)			> 100 µM (inactive)		> 100 µM (inactive)
C[C@@]12[Se]c3ccccc3[C@]1(C)[Se]c1ccccc12	4.85 µM (inactive)	> 100 µM (inactive)	6.47 µM (inactive)	> 100 µM (inactive)		5.89 µM (inactive)	> 100 µM (inactive)	> 100 µM (inactive)	2.75 µM (inactive)	> 100 µM (inactive)		> 100 µM (inactive)	2.57 µM (inactive)	2.23 µM (inactive)				4.79 µM (inactive)		
C/C=C/C(O)P(=O)(OC)OC (configuration not stated)	0.173 µM (active)		0.27 µM (active)	0.254 µM (active)	0.309	0.187 µM (active)	0.332 µM (active)	0.255 µM (active)	0.215 µM (active)	0.263 µM (active)	0.279 µM (active)	0.4 µM (active)	0.312 µM (active)	0.27 µM (active)	0.164 µM (active)	0.594 µM (active)	0.34 µM (active)	< 0.0385 µM (active)	0.217 µM (active)	0.32 µM (active)
CCOC(=O)/C(C#N)=C/c1coc2cc(C)cc(C)c2c1=O	> 100 µM (inactive)		> 100 µM (inactive)	> 100 µM (inactive)	> 100	> 100 µM (inactive)	> 100 µM (inactive)	64.9 µM (inactive)	> 100 µM (inactive)	66.4 µM (inactive)	> 100 µM (inactive)	> 100 µM (inactive)	> 100 µM (inactive)	> 100 µM (inactive)	59 µM (inactive)	> 100 µM (inactive)	> 100 µM (inactive)	95.1 µM (inactive)	> 100 µM (inactive)	> 100 µM (inactive)
c1cc(-c2ccc(Oc3ccc(-c4ccncc4)cc3)cc2)ccn1	6.81 µM (inactive)		5 µM (inactive)	4.24 µM (inactive)	3.43	9.18 µM (inactive)	27.6 µM (inactive)	6.14 µM (inactive)	25.6 µM (inactive)	22.6 µM (inactive)	5.4 µM (inactive)	23.3 µM (inactive)	15.9 µM (inactive)	7.18 µM (inactive)	7.21 µM (inactive)	5.07 µM (inactive)	11.4 µM (inactive)	14.1 µM (inactive)	2.39 µM (inactive)	> 26.7 µM (inactive)
O=C(/C=C/c1ccccc1)CC(=O)CCC(=O)Nc1ccc(Cl)cc1	> 100 µM (inactive)	29.2 µM (inactive)	80.7 µM (inactive)	37.8 µM (inactive)	> 100	39.2 µM (inactive)	> 100 µM (inactive)	> 100 µM (inactive)		60.3 µM (inactive)	> 100 µM (inactive)	> 100 µM (inactive)		2.69 µM (inactive)	94 µM (inactive)					
Cc1ccc(-c2n[nH]c(=O)n2/N=C\c2ccccc2)cc1	60.3 µM (inactive)		> 87.3 µM (inactive)	37.5 µM (inactive)	72.6	> 100 µM (inactive)	71.4 µM (inactive)	> 84.1 µM (inactive)	24.7 µM (inactive)	28.4 µM (inactive)	76.2 µM (inactive)	34.5 µM (inactive)	28.6 µM (inactive)	46.8 µM (inactive)	> 68.7 µM (inactive)	10.1 µM (inactive)	> 94.2 µM (inactive)	21 µM (inactive)	51.1 µM (inactive)	> 72.8 µM (inactive)
C=CCSC[C@H](NC(=O)COc1ccccc1)C(=O)NC(C(=O)OCc1ccc([N+](=O)[O-])cc1)=C(C)C	> 100 µM (inactive)	> 100 µM (inactive)	> 100 µM (inactive)	> 100 µM (inactive)	65.5	64.9 µM (inactive)	28.6 µM (inactive)	45.7 µM (inactive)	49.7 µM (inactive)	> 100 µM (inactive)		> 100 µM (inactive)	37.6 µM (inactive)	72.6 µM (inactive)	33.6 µM (inactive)					> 100 µM (inactive)
Cc1cc(NCCCCCCNc2cc(C)nc3cc(N(C)C)ccc23)c2ccc(N(C)C)cc2n1	52.4 µM (inactive)	39.3 µM (inactive)	22.4 µM (inactive)	10.7 µM (inactive)	> 100			57.1 µM (inactive)	> 100 µM (inactive)	57.9 µM (inactive)	59.6 µM (inactive)	6 µM (inactive)	10 µM (inactive)	9.2 µM (inactive)	88.7 µM (inactive)					29.2 µM (inactive)
CC1CCC2(NC1)OC1CC3C4CC=C5CC(OC6OC(CO)C(OC7OC(C)C(O)C(O)C7O)C(O)C6OC6OC(C)C(O)C(O)C6O)CCC5(C)C4CCC3(C)C1C2C (configuration not stated)	1.99 µM (inactive)		2.16 µM (inactive)	2.31 µM (inactive)	6.67	5.79 µM (inactive)	2.46 µM (inactive)	1.96 µM (inactive)	4.05 µM (inactive)	2 µM (inactive)	3.3 µM (inactive)	2.24 µM (inactive)	2.5 µM (inactive)	3.02 µM (inactive)	7.45 µM (inactive)	15.6 µM (inactive)	4 µM (inactive)	3.69 µM (inactive)	2.37 µM (inactive)	1.91 µM (inactive)
O=c1[nH]c2nc3ccccc3c(=O)n2/c1=C/c1ccccc1	25.8 µM (inactive)		31 µM (inactive)	31.1 µM (inactive)	29.8	25.2 µM (inactive)	18.7 µM (inactive)	22 µM (inactive)	55 µM (inactive)	20.6 µM (inactive)	22.5 µM (inactive)	25.1 µM (inactive)	30.5 µM (inactive)	28.6 µM (inactive)	78 µM (inactive)	17.1 µM (inactive)	29 µM (inactive)	20.7 µM (inactive)	25.6 µM (inactive)	45.1 µM (inactive)
O=C(O)C(O)C(O)C(O)C(=O)CO (configuration not stated)	> 100 µM (inactive)		> 100 µM (inactive)	> 100 µM (inactive)	> 100	> 100 µM (inactive)	> 100 µM (inactive)	> 100 µM (inactive)	> 100 µM (inactive)	> 100 µM (inactive)	> 100 µM (inactive)	> 100 µM (inactive)	> 100 µM (inactive)	> 100 µM (inactive)	> 100 µM (inactive)	> 100 µM (inactive)	> 100 µM (inactive)	> 100 µM (inactive)	> 100 µM (inactive)	> 100 µM (inactive)
